In patent US5164296A, “Assay methods involving ouabain” (priority 1990, dated 1992):

Key:
[1] = target: T1, washed human red blood cells (Homo sapiens, UniProt P05023); experiment: Inhibition of ouabain-sensitive ^86 Rb uptake by washed human red blood cells; format: cell-based
T1 construct: washed human red blood cells obtained by venipuncture; endogenous in cells; host or cells: washed human red blood cells (venipuncture)
Experimental: Fractions from the column were assayed for inhibition of ouabain-sensitive ^86 Rb uptake by washed human red blood cells obtained by venipuncture. This assay was used as an index of sodium transport activity (Hamlyn, J.M. et al, J. Biol. Chem., 264:7395-7404 (1989)).
More specifically, freshly washed cells were incubated for 2 hr at 37° C. (16% final hematocrit) in a final volume of 150 μl of flux buffer comprising 150 mM NaCl, 2.0 mM […] containing tracer amounts of ^86 Rb (DuPont--New England Nuclesr), 1.0 mM MgCl2, 1.0 mM Na2 HPO4, 2.0 mM CaCl2, 5.0 mM glucose and 20 mM HEPES-Tris (pH 7.4) (hereinafter "flux fubber"). Incubations were initiated by addition of column fractions to the cells. Aliquots were removed at various times and mixed with ice-cold flux buffer lacking ^86 Rb to quench the reactions. The quenched reactions were applied to a silicone oil cushion (Hysol XF1792B, Dexter Corp., Olean, N.Y.) in microcentrifuge tubes and centrifuged at 800×g for 10 min at 4° C. The red cell pellet was cut from deep-frozen tubes and trapped ^86 Rb was determined by γ-counting. Flux data were expressed as nmol of Rb uptake/10^8 cells. In each case, a value of 1.11×10^13 cells/liter was used to convert packed cell volumes to cell number for the flux data calculations. Ouabain-insensitive ^86 Rb uptake was estimated in parallel experiments by inclusion of 1.0 mM ouabain in the flux buffer. Ouabain-sensitive ^86 Rb uptake was taken as the total uptake minus that obtained in the presence of 1.0 mM ouabain.
The inhibition of ouabain-sensitive uptake of ^86 Rb was carried out as described above.

[2] = test system: antibodies having binding specificity for ouabain; experiment: Competition ELISA for binding to antibodies having binding specificity for ouabain; set-up: species or system rabbit
Experimental: The competition for binding to antibodies having binding specificity for ouabain was carried out by employing polyclonal antisera having titers >10,000 generated against ouabain in rabbits as described in Example 2 below. […] A competition ELISA was carried out as follows:
Microtiter plates were coated with 50 μl of a 1.0 ng/ml solution of Conjugate 4. Following washes with wash buffer comprising 0.9% (w/v) NaCl and 0.5% (v/v) Tween 20 (hereinafter "wash buffer"), residual sites were blocked with buffer comprising 136 mM NaCl, 1.46 mM KH2 PO4, 0.8 mM Na2 HPO4, 0.028 mM thimerosal, 0.5% (v/v) Tween 20, and 1.0% (w/v) BSA (pH 7.4). Known amounts of free ouabain or unknown samples were introduced followed by the addition of ouabain antisera at an overall dilution of 1:2×10^6. Incubations at 23° C. for 1 hr were terminated by repeated washing with wash buffer. Subsequently, a second incubation at […] for 1hr was performed with a 1:10^3 dilution of goat anti-rabbit IgG-peroxidase conjugate (Boehringer Mannheim, Indianapolis, Ind.). Following extensive washing with wash buffer, equal parts of 3, 3', 5, 5'-tetramethylbenzindine and hydrogen peroxide (Kirkegaard and Perry, Gaitheresburg, Md.) were added and incubated at 23° C. for 15 min. Color development was terminated by addition of 1.0 M H3 PO4 and read at 450 nm with a plate reader. […] Each data point is the mean ± S.E.M. All lines were fitted by nonlinear regression to a sigmoidal function.

[3] = test system: left atria from guinea pigs; experiment: Inotropic properties in left atria from guinea pigs; set-up: species or system guinea pig
Experimental: Atria were incubated at 37° C. in phosphate buffered saline comprising 130 mM NaCl, 5.4 mM KCl, 1.8 mM MgCl2, 0.4 mM NaH2 PO4, 19 mM NaHCO3 and 5.4 g of glucose (pH 7.3-7.4), and gassed with 95% O2 /5% CO2. Tissues were stimulated at 1 Hz with twice threshold square pulses (0.8 to 1.0 V) of 0.7 to 1.2 msec duration. Resting tension was optimized for maximum isometric force generation. Control records were obtained once the phasic force was stabilized. […] For comparison, 200 nM plant ouabain evoked an inotropic response of 311±41% (N=4 experiments) which returned to normal with a half-time of approximately 5 min upon washout.

[4] = test system: rings of aorta from guinea pigs; experiment: Vasoactive properties in rings of aorta from guinea pigs; set-up: species or system guinea pig
Experimental: The aortic rings were incubated at 37° C. in phosphate buffered saline. The rings were submaximally contracted for 3 to 7 min, every 35 min, with 0.2 or 1.0 μM histamine. […] The apparent half-time for washout of the augmented tension response in the presence of plant ouabain was also much greater than 60 min.

[5] = Protein binding in plasma; format: in vitro ADME; conditions: EDLF described in the present invention
[6] = test system: catechol-o-methyl transferase (COMT); experiment: Substrate for catechol-o-methyl transferase (COMT); format: in vitro ADME; conditions: EDLF described in the present invention
[7] = test system: (Na^+ +K^+)ATPase; conditions: type II-phosphorylating conditions; cited from earlier work
[8] = 6.0 N HCl at 110° C.; cited from earlier work
[9] = test system: digoxin antibodies; conditions: cited from earlier work
[10] = 50 ml of plasma equivalents from the UV peak at 32 min

SMILES: CC1OC(OC2CC(O)C3(CO)C4C(O)CC5(C)C(C6=CC(=O)OC6)CCC5(O)C4CCC3(O)C2)C(O)C(O)C1O (centres unmarked) [human ouabain]
- effect on ouabain-insensitive uptake [1, 10]: no effect
- inhibition of ouabain-sensitive ^86 Rb uptake [1, 10]: 80%
- Hill coefficient ([1]; inhibition of ouabain-sensitive uptake of ^86 Rb): -0.99
- Hill coefficient ([2]; competition ELISA): -0.65
- Kd ([2]; competition ELISA, antisera 1:2×10^6, read-out: calculated apparent Kd value): 1.6 nM
- cross-reaction with antibodies having binding specificity for ouabain ([2]; within experimental error): 100%
- time to plateau of increase in peak force ([3]; 85 nM): 34 min
- activation at 0.17 µM ([3]; Cavia porcellus, read-out: developed force above the control): 294 ± 28%
- apparent half-time for washout of the inotropic response ([3]; upon washout): approximately 5 min
- effect on baseline tension ([4]; 170 nM human ouabain, 200 nM plant ouabain): no effect
- activity at 0.17 µM ([4]; Cavia porcellus, 0.5 h, read-out: histamine-evoked tension, % of control): 150 ± 14%
- apparent half-time for washout of the augmented tension response ([4]; upon washout): greater than 60 min
- protein binding in plasma [5]: not highly protein bound in plasma
- substrate for COMT [6]: not a substrate for COMT
- affinity higher than that of ouabain [7]: 12-25 fold
- rate of loss of inhibitory activity compared with ouabain [8]: significantly greater
- cross-reaction with digoxin antibodies [9]: does not cross-react
